Experimental data reported in publication PMC5011342, “A high throughput drug screening assay to identify compounds that promote oligodendrocyte differentiation using acutely dissociated and purified oligodendrocyte precursor cells” (BMC Research Notes, 2016).
Values joined by “and” are separate entries in the source; they are usually repeats but may differ in a detail not shown here. Equal values may be shown once. Read-outs that look alike come from different tables or passages of the source.

Legend:
expanded OPCs = assay: cells; conditions: for viability at 0.1 µM / viability at 1 µM / viability at 10 µM: Rattus norvegicus, 72 h
In short: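 Toxicity screen: compounds added at 0.1, 1 and 10 µM to PDGF-AA-expanded OPCs in 96-well plates, 3-day incubation at 37 °C, 10% CO2, then alamarBlue 1:10 for 4 h with fluorescence readout. Results set screening doses of 10/2, 2/0.4 or 0.4/0.08 µM.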

[1] = test system: acutely dissociated and purified rat OPCs; assay: Acute OL differentiation assay (MBP expression/cell, immunofluorescent image quantification); format: cell-based; conditions: for activation at 2 µM / activation at 10 µM / activation at 0.4 µM / activation at 0.08 µM: Rattus norvegicus
In short: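 This acute differentiation assay used purified rat OPCs from postnatal day 6–7 pups, seeded into PDL/laminin-coated 96-well plates in differentiation medium lacking PDGF and FGF. Compounds were applied in quadruplicate after a 1–2 h preincubation at 37 °C, 10 % CO2, with 0.1 % DMSO negative and 40 ng/ml T3 positive controls in eight wells. After fixation on DIV4, anti-MBP immunofluorescence images yielded MBP expression/cell.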

[2] = alamarBlue viability of expanded OPCs, compound at 0.1 µM, relative to DMSO control
[3] = alamarBlue viability of expanded OPCs, compound at 1 µM, relative to DMSO control
[4] = alamarBlue viability of expanded OPCs, compound at 10 µM, relative to DMSO control
[5] = 2 uM test compound, relative to quetiapine, sheet "All OLga data", read-out: OL differentiation, 2 uM (% Quet)
[6] = 10 uM test compound, relative to quetiapine, sheet "All OLga data", read-out: OL differentiation, 10 uM (% Quet)
[7] = test compound at 0.4 uM, NCC library screen, sheet "All OLga data", relative to quetiapine, read-out: 0.4 uM (% Quet)
[8] = test compound at 2 uM, NCC library screen, sheet "All OLga data", relative to quetiapine, read-out: 2 uM (% Quet)
[9] = test compound at 2 uM, MBP expression relative to quetiapine, NCC library screen, sheet "All OLga data", read-out: 2 uM (% Quet)
[10] = test compound at 10 uM, MBP expression relative to quetiapine, NCC library screen, sheet "All OLga data", read-out: 10 uM (% Quet)
[11] = read-out: 0.1 µM (% DMSO), alamarBlue viability, NCC library compound at 0.1 µM, sheet "All Tox data"
[12] = read-out: 1 µM (% DMSO), alamarBlue viability, NCC library compound at 1 µM, sheet "All Tox data"
[13] = read-out: 10 µM (% DMSO), alamarBlue viability, NCC library compound at 10 µM, sheet "All Tox data"
[14] = test compound at 10 uM, NCC library screen, sheet "All OLga data", relative to quetiapine, read-out: 10 uM (% Quet)

Row | Structure (SMILES) | 0.1 µM (% DMSO) (expanded OPCs; [2]) | 1 µM (% DMSO) (expanded OPCs; [3]) | 10 µM (% DMSO) (expanded OPCs; [4]) | activation at 2 µM [1, 5] | activation at 0.4 µM [1, 7] | activation at 2 µM [1, 8] | viability at 0.1 µM (expanded OPCs; [11]) | viability at 1 µM (expanded OPCs; [12]) | viability at 10 µM (expanded OPCs; [13]) | other results
1 | CN(C)CCC=C1c2ccccc2COc2ccccc21 [Doxepin] | 109.3 % DMSO | 91.6 % DMSO | 52.1 % DMSO | 47.3% | 2.7% | 36% |  |  |  | viability at 0.1 µM (expanded OPCs; read-out: 0.1 µM (% DMSO), alamarBlue viability of expanded OPCs, compound at 0.1 µM, sheet All Tox data): 81.5%; viability at 1 µM (expanded OPCs; read-out: 1 µM (% DMSO), alamarBlue viability of expanded OPCs, compound at 1 µM, sheet All Tox data): 85%; viability at 10 µM (expanded OPCs; read-out: 10 µM (% DMSO), alamarBlue viability of expanded OPCs, compound at 10 µM, sheet All Tox data): 64.4%; activation at 10 µM [1, 6]: 37.1%
2 | C[C@H]1c2cccc(O)c2C(=O)C2=C(O)[C@]3(O)C(=O)C(C(N)=O)=C(O)[C@@H](N(C)C)[C@@H]3[C@@H](O)[C@@H]21 [Doxycycline] | 95.2 % DMSO | 91.4 % DMSO | 82.8 % DMSO |  |  |  |  |  |  | activation at 2 µM [1, 9]: 4.2%; activation at 10 µM [1, 10]: -18.6%
3 | CN(C)CCOC(C)(c1ccccc1)c1ccccn1 (centres unmarked) [Doxylamine] |  |  |  | -9.7% |  |  | 96% | 86.6% | 75% | activation at 10 µM [1, 6]: 0.7%
4 | O=C(CCCN1CC=C(n2c(=O)[nH]c3ccccc32)CC1)c1ccc(F)cc1 [Droperidol] |  |  |  | 7.3% |  |  | 90.8% | 97.2% | 71.6% | activation at 10 µM [1, 6]: -13.2%
5 | CS(=O)(=O)c1ccc(-c2cc(Br)sc2-c2ccc(F)cc2)cc1 [DuP 697] |  |  |  |  | -42.3% | -109% | 89.6% | 114% | 10.7% | 
6 | CNCC[C@H](Oc1cccc2ccccc12)c1cccs1 [Duloxetine] |  |  |  |  |  |  |  |  |  | 0.1 µM (% DMSO) (expanded OPCs): 56.7 % DMSO and 82.6 % DMSO; 1 µM (% DMSO) (expanded OPCs): 45.5 % DMSO; 10 µM (% DMSO) (expanded OPCs): 12.6 % DMSO; viability at 1 µM (expanded OPCs; read-out: 1 µM (% DMSO)): 30.3%; viability at 10 µM (expanded OPCs; read-out: 10 µM (% DMSO)): 9.7%; activation at 0.08 µM ([1]; read-out: 0.08 uM (% Quet)): -5.1%; activation at 0.4 µM ([1]; read-out: 0.4 uM (% Quet)): -12.9%; activation at 0.08 µM ([1]; read-out: OL differentiation, 0.08 uM (% Quet)): 18.3%; activation at 0.4 µM ([1]; read-out: OL differentiation, 0.4 uM (% Quet)): -7.6%
7 | O=c1c2ccccc2[se]n1-c1ccccc1 [Ebselen] |  |  |  |  | -95.7% |  | 61.7% | 30.7% | 10.1% | activation at 0.08 µM ([1]; test compound at 0.08 uM, NCC library screen, sheet "All OLga data", relative to quetiapine, read-out: 0.08 uM (% Quet)): 131%
8 | Clc1ccc(COC(Cn2ccnc2)c2ccc(Cl)cc2Cl)cc1 (centres unmarked) [Econazole] | 178.0 % DMSO | 195.6 % DMSO | 29.6 % DMSO |  | 90% | -178% |  |  |  | 
9 | CC[N+](C)(C)c1cccc(O)c1 [Edrophonium] |  |  |  |  |  | 10.5% | 93% | 91% | 100% | activation at 10 µM [1, 14]: 10.8%
10 | O=C1Nc2ccc(Cl)cc2[C@@](C#CC2CC2)(C(F)(F)F)O1 [Efavirenz] |  |  |  | 40.9% |  |  | 90.4% | 85.6% | 16.8% | activation at 0.4 µM ([1]; 0.4 uM test compound, relative to quetiapine, sheet "All OLga data", read-out: OL differentiation, 0.4 uM (% Quet)): 3.8%
11 | CCOC(=O)[C@H](CCc1ccccc1)N[C@@H](C)C(=O)N1CCC[C@H]1C(=O)O [Enalapril] | 90.6 % DMSO | 90.6 % DMSO | 87.6 % DMSO |  |  |  |  |  |  | activation at 2 µM [1, 9]: 8.8%; activation at 10 µM [1, 10]: -8.9%
12 | C[C@H](N[C@@H](CCc1ccccc1)C(=O)O)C(=O)N1CCC[C@H]1C(=O)O [Enalaprilat] |  |  |  |  |  |  |  |  |  | 0.1 µM (% DMSO) (expanded OPCs; alamarBlue viability, NCC library compound at 0.1 µM, sheet "All Tox data"): 92.9 % DMSO; 1 µM (% DMSO) (expanded OPCs; alamarBlue viability, NCC library compound at 1 µM, sheet "All Tox data"): 91.2 % DMSO; 10 µM (% DMSO) (expanded OPCs; alamarBlue viability, NCC library compound at 10 µM, sheet "All Tox data"): 83.0 % DMSO; OL differentiation, 2 uM (% Quet) ([1]; 2 uM test compound, relative to quetiapine, sheet "All OLga data"): -17.8 % Quet; OL differentiation, 10 uM (% Quet) ([1]; 10 uM test compound, relative to quetiapine, sheet "All OLga data"): -49.3 % Quet
13 | CCN1CCN(c2cc3c(cc2F)c(=O)c(C(=O)O)cn3C2CC2)CC1 [Enrofloxacin] |  |  |  |  |  | -3.6% | 88.5% | 89% | 79.9% | activation at 10 µM [1, 14]: 13.5%
